Values after ≈ are worked out from the molar mass of the structure shown.
Tests used:
[1] = tested on: RD cells; assay: Cytotoxicity of medicines by CCK-8; type: cell-based, human; conditions: 48 h
[2] = tested on: EV71; conditions: Vero cells pretreated with 200 μM before infection; cited from earlier work
[3] = tested on: EV71; assay: Inhibition of cell death caused by EV71 infection; type: cell-based, Enterovirus 71; conditions: Enterovirus A, EV71, RD, 48 h
[4] = Cytotoxicity of medicines by CCK-8; type: cell-based, human; conditions: human, RD cells

## O=c1c(O[C@@H]2O[C@H](CO)[C@@H](O)[C@H](O)[C@H]2O)c(-c2ccc(O)cc2)oc2cc(O)cc(O)c12 [Astragalin]
[1]
  MNTC: 200.00 µg/mL

## C[C@@H]1O[C@@H](OC[C@H]2O[C@@H](Oc3c(-c4ccc(O)c(O)c4)oc4cc(O)cc(O)c4c3=O)[C@H](O)[C@@H](O)[C@@H]2O)[C@H](O)[C@H](O)[C@H]1O [Rutin, rutin]
[1]
  MNTC: 200.00 µg/mL
[2]
  EV71-induced CPE and viral replication: significantly suppress

## O=C(O)/C=C/c1ccc(O)c(O)c1 [Caffeic acid]
[1]
  MNTC: 50.00 µg/mL

## O=c1c(O[C@@H]2O[C@H](CO)[C@H](O)[C@H](O)[C@H]2O)c(-c2ccc(O)c(O)c2)oc2cc(O)cc(O)c12 [Hyperoside]
[1]
  MNTC: 200.00 µg/mL

## O=C(/C=C/c1ccc(O)c(O)c1)O[C@H](Cc1ccc(O)c(O)c1)C(=O)O [Rosmarinic acid, rosmarinic acid]
[1]
  MNTC: 50.00 µg/mL
[3]
  IC50: 11.9 µg/mL (≈ 33 µM)

## O=C(O)c1cc(O)c(O)c(O)c1 [Gallic acid, gallic acid]
[1]
  MNTC: 6.25 µg/mL

## NC(=O)c1ncn([C@@H]2O[C@H](CO)[C@@H](O)[C@H]2O)n1 [ribavirin, Ribavirin, reference compound]
[4]
  CC50 at 48 h: 2430 µg/mL (≈ 9950 µM)
[1]; cell survival rate ≥ 90%
  MNTC (maximum non-toxic concentration): 1 mg/mL
[3]
  IC50: 290 µg/mL (≈ 1190 µM)

## O=C(/C=C/c1ccc(O)c(O)c1)O[C@H]1[C@H](O)C[C@](O)(C(=O)O)C[C@H]1O [Cryptochlorogenic acid, cryptochlorogenic acid]
[1]
  MNTC: 100.00 µg/mL

From article PMC10916518 (Drug Design, Development and Therapy, 2024)
